Earlier results as cited in patent US20220331235A1, “COMPOSITIONS FOR ORAL MICROADHESIVE DOSAGE FORMS” (FP NUTRACEUTICALS, LLC, priority 2018, published 2022).

Legend:
[1] = vitamin B6: from food or supplements
[2] = rat brain

## cobalamin [vitamin B12]
[1]
  bioavailability: 1-2%

## O=C([O-])c1cc(=O)[nH]c(=O)[nH]1.[Li+] [lithium orotate]
[2]
  level in the brain compared to the carbonate form: three-fold higher

## Cc1ncc(CO)c(CO)c1O [vitamin B6, pyridoxine]
[1]
  bioavailability: 75-100%

## [O-2].[Zn+2] [Zn-oxide]
other
  plasma zinc rankings based on area under the curve and rank results per person: glycinate>gluconate>picolinate=oxide

## zinc gluconate
other
  plasma zinc rankings based on area under the curve and rank results per person: glycinate>gluconate>picolinate=oxide

## NCC(=O)[O-].NCC(=O)[O-].[Zn+2] [zinc glycinate]
Acute uptake
  bioavailability among four forms of zinc (oxide, picolinate, gluconate, glycinate): highest bioavailability
other
  plasma zinc rankings based on area under the curve and rank results per person: glycinate>gluconate>picolinate=oxide
Versus second most-bioavailable form
  increase in bioavailability over zinc gluconate: 43.4%

## O=C([O-])c1ccccn1.O=C([O-])c1ccccn1.[Zn+2] [Zn-picolinate]
other
  plasma zinc rankings based on area under the curve and rank results per person: glycinate>gluconate>picolinate=oxide
